Measurements published in patent publication US8802597B2, “Herbicidal pyrimidines” (E I du Pont de Nemours and Company, priority 2003, dated 2014).
Like-named read-outs stand apart in the source and are kept apart here.

Key:
Format in all cases: in vivo
[1] = test system: Surinam grass (Brachiaria decumbens); assay: Test B pre/postemergence; conditions: Urochloa decumbens; for pest or weed control at 125 g/ha: 125 g ai/ha; for pest or weed control at 500 g/ha: 500 g ai/ha
Procedure, shortened: (§1)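 Greenhouse whole-plant test; surfactant-containing non-phytotoxic solvent formulation; pre- and postemergence applications made simultaneously; post plants 2–18 cm, 1- to 4-leaf; visual scoring at 13–15 days on 0–100 scale relative to controls.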

[2] = test system: barnyardgrass (Echinochloa crus-galli); assay: Test B pre/postemergence; conditions: Echinochloa crus-galli; for pest or weed control at 125 g/ha: 125 g ai/ha; for pest or weed control at 500 g/ha: 500 g ai/ha
Procedure, shortened: as §1

[3] = test system: cocklebur (Xanthium strumarium); assay: Test B pre/postemergence; conditions: Xanthium strumarium; for pest or weed control at 125 g/ha: 125 g ai/ha; for pest or weed control at 500 g/ha: 500 g ai/ha
Procedure, shortened: as §1

corn (Zea mays) = assay: Test B pre/postemergence; conditions: Zea mays
Procedure, shortened: as §1

[4] = test system: crabgrass (Digitaria sanguinalis); assay: Test B pre/postemergence; conditions: Digitaria sanguinalis; for pest or weed control at 125 g/ha: 125 g ai/ha; for pest or weed control at 500 g/ha: 500 g ai/ha
Procedure, shortened: as §1

[5] = test system: giant foxtail (Setaria faberii); assay: Test B pre/postemergence; conditions: Setaria faberi; for pest or weed control at 125 g/ha: 125 g ai/ha; for pest or weed control at 500 g/ha: 500 g ai/ha
Procedure, shortened: as §1

[6] = test system: lambsquarters (Chenopodium album); assay: Test B pre/postemergence; conditions: Chenopodium album; for pest or weed control at 125 g/ha: 125 g ai/ha; for pest or weed control at 500 g/ha: 500 g ai/ha
Procedure, shortened: as §1

[7] = test system: morningglory (Ipomoea coccinea); assay: Test B pre/postemergence; conditions: Ipomoea; for pest or weed control at 125 g/ha: 125 g ai/ha; for pest or weed control at 500 g/ha: 500 g ai/ha
Procedure, shortened: as §1

[8] = test system: pigweed (Amaranthus retroflexus); assay: Test B pre/postemergence; conditions: Amaranthus retroflexus; for pest or weed control at 125 g/ha: 125 g ai/ha; for pest or weed control at 500 g/ha: 500 g ai/ha
Procedure, shortened: as §1

[9] = test system: velvetleaf (Abutilon theophrasti); assay: Test B pre/postemergence; conditions: Abutilon theophrasti; for pest or weed control at 125 g/ha: 125 g ai/ha; for pest or weed control at 500 g/ha: 500 g ai/ha
Procedure, shortened: as §1

[10] = test system: wheat (Triticum aestivum); assay: Test B pre/postemergence; conditions: Triticum aestivum; for plant injury at 125 g/ha: 125 g ai/ha; for plant injury at 500 g/ha: 500 g ai/ha
Procedure, shortened: as §1

[11] = test system: blackgrass (Alopecurus myosuroides); assay: Test B postemergence; conditions: Alopecurus myosuroides, post-emergence
Procedure, shortened: as §1

wild oat (Avena fatua) = assay: Test B postemergence; conditions: Avena fatua, post-emergence
Procedure, shortened: as §1

[12] = test system: barnyardgrass (Echinochloa crus-galli); assay: Test B flooded paddy test; conditions: Echinochloa crus-galli, Flood, 1000 g ai/ha; scale 0 (no effect) to 100 (complete control); read-out: Plant response rating, Barnyardgrass
Procedure, shortened: (§2)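 Plants were grown to the 2-leaf stage before treatment, then kept in a greenhouse for 13 to 15 days. Injury was rated visually against untreated controls on a 0 to 100 scale, where 0 is no effect and 100 is complete control.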

[13] = test system: duck salad (Heteranthera limosa); assay: Test B flooded paddy test; conditions: Heteranthera limosa, Flood, 1000 g ai/ha; scale 0 to 100; read-out: Plant response rating, Ducksalad
Procedure, shortened: as §2

rice (Oryza sativa) = assay: Test B flooded paddy test; conditions: Oryza sativa, Flood, 1000 g ai/ha; scale 0 to 100; read-out: Plant response rating, Rice
Procedure, shortened: as §2

[14] = test system: umbrella sedge (Cyperus difformis); assay: Test B flooded paddy test; conditions: Cyperus difformis, Flood, 1000 g ai/ha; scale 0 to 100; read-out: Plant response rating, Sedge, Umbrella
Procedure, shortened: as §2

## COC(=O)c1nc(-c2ccccc2)nc(N)c1Br [Compound 23]
[1]; post-emergence, Postemergence, scale 0 to 100 (0 no effect, 100 complete control), read-out: Surinam Grass plant response rating
  pest or weed control at 125 g/ha: 0%
[1]; post-emergence, Postemergence, scale 0 to 100, read-out: Plant response rating, Surinam Grass
  pest or weed control at 500 g/ha: 10%
[1]; pre-emergence, Preemergence, scale 0 to 100 (0 no effect, 100 complete control), read-out: Plant response rating, Surinam Grass
  pest or weed control at 125 g/ha: 0%
[1]; pre-emergence, Preemergence, scale 0 to 100 (0 no effect, 100 complete control), read-out: Surinam Grass plant response rating
  pest or weed control at 500 g/ha: 0%
[2]; post-emergence, Postemergence, scale 0 to 100 (0 no effect, 100 complete control), read-out: Barnyardgrass plant response rating
  pest or weed control at 125 g/ha: 0%
[2]; post-emergence, Postemergence, scale 0 to 100, read-out: Plant response rating, Barnyardgrass
  pest or weed control at 500 g/ha: 0%
[2]; pre-emergence, Preemergence, scale 0 to 100 (0 no effect, 100 complete control), read-out: Plant response rating, Barnyardgrass
  pest or weed control at 125 g/ha: 0%
[2]; pre-emergence, Preemergence, scale 0 to 100 (0 no effect, 100 complete control), read-out: Barnyardgrass plant response rating
  pest or weed control at 500 g/ha: 0%
[3]; post-emergence, Postemergence, scale 0 to 100 (0 no effect, 100 complete control), read-out: Cocklebur plant response rating
  pest or weed control at 125 g/ha: 30%
[3]; post-emergence, Postemergence, scale 0 to 100, read-out: Plant response rating, Cocklebur
  pest or weed control at 500 g/ha: 90%
[3]; pre-emergence, Preemergence, scale 0 to 100 (0 no effect, 100 complete control), read-out: Plant response rating, Cocklebur
  pest or weed control at 125 g/ha: 0%
[3]; pre-emergence, Preemergence, scale 0 to 100 (0 no effect, 100 complete control), read-out: Cocklebur plant response rating
  pest or weed control at 500 g/ha: 10%
Corn (Zea mays); post-emergence, Postemergence, 125 g ai/ha, scale 0 to 100 (0 no effect, 100 complete control), read-out: Corn plant response rating
  plant injury at 125 g/ha: 0%
Corn (Zea mays); post-emergence, Postemergence, 500 g ai/ha, scale 0 to 100
  Corn plant response rating (crop injury, 0 = no effect, 100 = complete kill) at 500 g/ha: 0%
Corn (Zea mays); pre-emergence, Preemergence, 125 g ai/ha, scale 0 to 100 (0 no effect, 100 complete control)
  Corn plant response rating (crop injury, 0 = no effect, 100 = complete kill) at 125 g/ha: 0%
Corn (Zea mays); pre-emergence, Preemergence, 500 g ai/ha, scale 0 to 100 (0 no effect, 100 complete control), read-out: Corn plant response rating
  plant injury at 500 g/ha: 0%
[4]; post-emergence, Postemergence, scale 0 to 100 (0 no effect, 100 complete control), read-out: Crabgrass plant response rating
  pest or weed control at 125 g/ha: 0%
[4]; post-emergence, Postemergence, scale 0 to 100, read-out: Plant response rating, Crabgrass
  pest or weed control at 500 g/ha: 0%
[4]; pre-emergence, Preemergence, scale 0 to 100 (0 no effect, 100 complete control), read-out: Plant response rating, Crabgrass
  pest or weed control at 125 g/ha: 0%
[4]; pre-emergence, Preemergence, scale 0 to 100 (0 no effect, 100 complete control), read-out: Crabgrass plant response rating
  pest or weed control at 500 g/ha: 0%
[5]; post-emergence, Postemergence, scale 0 to 100 (0 no effect, 100 complete control), read-out: Foxtail, Giant plant response rating
  pest or weed control at 125 g/ha: 0%
[5]; post-emergence, Postemergence, scale 0 to 100, read-out: Plant response rating, Foxtail, Giant
  pest or weed control at 500 g/ha: 10%
[5]; pre-emergence, Preemergence, scale 0 to 100 (0 no effect, 100 complete control), read-out: Plant response rating, Foxtail, Giant
  pest or weed control at 125 g/ha: 0%
[5]; pre-emergence, Preemergence, scale 0 to 100 (0 no effect, 100 complete control), read-out: Foxtail, Giant plant response rating
  pest or weed control at 500 g/ha: 0%
[6]; post-emergence, Postemergence, scale 0 to 100 (0 no effect, 100 complete control), read-out: Lambsquarters plant response rating
  pest or weed control at 125 g/ha: 70%
[6]; post-emergence, Postemergence, scale 0 to 100, read-out: Plant response rating, Lambsquarters
  pest or weed control at 500 g/ha: 80%
[6]; pre-emergence, Preemergence, scale 0 to 100 (0 no effect, 100 complete control), read-out: Plant response rating, Lambsquarters
  pest or weed control at 125 g/ha: 0%
[6]; pre-emergence, Preemergence, scale 0 to 100 (0 no effect, 100 complete control), read-out: Lambsquarters plant response rating
  pest or weed control at 500 g/ha: 30%
[7]; post-emergence, Postemergence, scale 0 to 100 (0 no effect, 100 complete control), read-out: Morningglory plant response rating
  pest or weed control at 125 g/ha: 40%
[7]; post-emergence, Postemergence, scale 0 to 100, read-out: Plant response rating, Morningglory
  pest or weed control at 500 g/ha: 70%
[7]; pre-emergence, Preemergence, scale 0 to 100 (0 no effect, 100 complete control), read-out: Plant response rating, Morningglory
  pest or weed control at 125 g/ha: 0%
[7]; pre-emergence, Preemergence, scale 0 to 100 (0 no effect, 100 complete control), read-out: Morningglory plant response rating
  pest or weed control at 500 g/ha: 10%
[8]; post-emergence, Postemergence, scale 0 to 100 (0 no effect, 100 complete control), read-out: Pigweed plant response rating
  pest or weed control at 125 g/ha: 30%
[8]; post-emergence, Postemergence, scale 0 to 100, read-out: Plant response rating, Pigweed
  pest or weed control at 500 g/ha: 70%
[8]; pre-emergence, Preemergence, scale 0 to 100 (0 no effect, 100 complete control), read-out: Plant response rating, Pigweed
  pest or weed control at 125 g/ha: 0%
[8]; pre-emergence, Preemergence, scale 0 to 100 (0 no effect, 100 complete control), read-out: Pigweed plant response rating
  pest or weed control at 500 g/ha: 20%
[9]; post-emergence, Postemergence, scale 0 to 100 (0 no effect, 100 complete control), read-out: Velvetleaf plant response rating
  pest or weed control at 125 g/ha: 40%
[9]; post-emergence, Postemergence, scale 0 to 100, read-out: Plant response rating, Velvetleaf
  pest or weed control at 500 g/ha: 70%
[9]; pre-emergence, Preemergence, scale 0 to 100 (0 no effect, 100 complete control), read-out: Plant response rating, Velvetleaf
  pest or weed control at 125 g/ha: 0%
[9]; pre-emergence, Preemergence, scale 0 to 100 (0 no effect, 100 complete control), read-out: Velvetleaf plant response rating
  pest or weed control at 500 g/ha: 20%
[10]; post-emergence, Postemergence, scale 0 to 100 (0 no effect, 100 complete control), read-out: Wheat plant response rating
  plant injury at 125 g/ha: 0%
[10]; post-emergence, Postemergence, scale 0 to 100, read-out: Plant response rating, Wheat
  plant injury at 500 g/ha: 20%
[10]; pre-emergence, Preemergence, scale 0 to 100 (0 no effect, 100 complete control), read-out: Plant response rating, Wheat
  plant injury at 125 g/ha: 0%
[10]; pre-emergence, Preemergence, scale 0 to 100 (0 no effect, 100 complete control), read-out: Wheat plant response rating
  plant injury at 500 g/ha: 0%
[11]; 125 g ai/ha, scale 0 to 100 (0 no effect, 100 complete control), read-out: Blackgrass plant response rating
  pest or weed control at 125 g/ha: 0%
[11]; 500 g ai/ha, scale 0 to 100, read-out: Plant response rating, Blackgrass
  pest or weed control at 500 g/ha: 10%
Wild oat (Avena fatua); 125 g ai/ha, scale 0 to 100 (0 no effect, 100 complete control), read-out: Oat, Wild plant response rating
  pest or weed control at 125 g/ha: 10%
Wild oat (Avena fatua); 500 g ai/ha, scale 0 to 100, read-out: Plant response rating, Oat, Wild
  pest or weed control at 500 g/ha: 10%
[12]
  pest or weed control at 1000 g/ha: 0%
[13]
  pest or weed control at 1000 g/ha: 30%
Rice (Oryza sativa)
  plant injury at 1000 g/ha: 0%
[14]
  pest or weed control at 1000 g/ha: 0%
